From PMC11371747, “The role of l-leucovorin uptake and metabolism in the modulation of 5-fluorouracil efficacy and antifolate toxicity” (Frontiers in Pharmacology, 2024)
Where two headings read alike, the source gives them in different places.

Key:
[1] = system: AA8 cells; experiment: Growth inhibition, SRB assay, AA8 (parental CHO); format: cell-based, Chinese hamster; details: for IC50: AA8 parental CHO
Experimental: (§1) Briefly, cells were seeded in triplicate in 96-well plates at their pre-established optimal density (CHO cells: 2,500 cells/100 μL; WiDr and HT29: 3,500 cells/100 μL; WiDr-LF/LV, LS174T: 5,000 cells/100 μL; CaCo2, CaCo2-LF/LV, H292, H28 and MSTO-211H: 6,000 cells/100 μL; H460, SW948 and SW1398: 7,000 cells/100 μL) and were allowed to attach for ∼ 24 h at 37°C in 5% CO2 and 100% humidified incubator. Thereafter, 100 μL of drug dilution without LV, or with 5 μM l-LV/5 μM d-LV/10 μM dL-LV (or any LV alone) were added. Cells were allowed to grow for 72 h at 37°C in 5% CO2 and 100% humidity. The t = 0 h control plate consisted of cells plated on the same day as the other cells, but after 24 h at 37°C in 5% CO2 and 100% humidity, only 100 μL medium was added and the cells were fixed immediately with 50% trichloroacetic acid (TCA) in milliQ water (25 μL per well) and put at 4°C for at least 1 h. Plates were washed five times with water and dried. Cells were stained with the SRB protein dye (0.4% (w/v) in 1% acetic acid. Excess dye was washed away four times with 1% acetic acid and plates were dried again. 200 μL of Tris (10 mM Tris (hydroxymethyl)-aminomethane in MQ) was added and optical density (OD) was read at 492 nm after mixing 2–3 min on a plate shaker.

[2] = system: CHO/C5-MOCK cells; experiment: Growth inhibition, SRB assay, CHO/C5-MOCK (empty vector); format: cell-based, Chinese hamster
Experimental: as §1

[3] = system: NSCLC and MPM cell lines; experiment: Growth inhibition, SRB assay, NSCLC and MPM cell lines; format: cell-based, human; details: 5 µM l-LV, H28, MSTO-211H, H460, H292
Experimental: as §1

[4] = system: CHO/C5-hRFC cells; experiment: Growth inhibition, SRB assay, CHO/C5-hRFC (human RFC transfected); format: cell-based, Chinese hamster; details: CHO/C5-hRFC
Experimental: as §1

[5] = system: MSTO-211H cells; experiment: Growth inhibition, SRB assay, MSTO-211H (MPM); format: cell-based, human; details: SRB, read-out: IC50, 72 h drug exposure
Experimental: as §1

[6] = biological target: T1, thymidylate synthase (TS) (Homo sapiens, UniProt P04818); experiment: TS in situ inhibition assay (TSIA) in colon cancer cells; format: cell-based
T1 construct: The principle of this assay is the measurement of TS enzymatic activity in intact cells; endogenous in cells; host or cells: colon cancer cell lines (WiDr, WiDr-LF, SW1398, LS174T and others)
Description: The principle of this assay is the measurement of TS enzymatic activity in intact cells. Intact cells will readily internalize radioactively labelled [5-^3H]-deoxycytidine, which will be rapidly converted by deoxycytidine kinase (dCK) to [5-^3H]-dCMP and subsequently deaminated to [5-^3H]-dUMP, which will then serve as a substrate in the TS catalysed reaction to dTMP and ^3H2O; the quantity of ^3H2O formed over time is a measure of intracellular TS activity. […] This is because dCK has a higher, cell cycle independent activity than thymidine kinase 1, which is a cell cycle dependent enzyme. For this purpose, cancer cells were cultured in six wells plates at 2.5 × 10^5 cells/2 mL/well for 24 h. Thereafter, cells were exposed to drugs with or without the LV formulations at the indicated concentrations for 4 h. 2 h before the end of the incubation period [5-^3H]-2′-deoxycytidine (final concentration 1 µM) was added to the cells. […] In most cell lines we quantified dCK activity and dCK mRNA levels.

[7] = system: H460 cells; experiment: Growth inhibition, SRB assay, H460 (NSCLC); format: cell-based, human; details: H460, SRB, read-out: IC50, 72 h drug exposure
Experimental: as §1

[8] = system: CHO/C5 cells; experiment: Growth inhibition, SRB assay, CHO/C5 (RFC-deficient); format: cell-based, Chinese hamster
Experimental: as §1

[9] = system: H28 cells; experiment: Growth inhibition, SRB assay, H28 (MPM); format: cell-based, human; details: H28, SRB, read-out: IC50, 72 h drug exposure
Experimental: as §1

[10] = system: H292 cells; experiment: Growth inhibition, SRB assay, H292 (NSCLC); format: cell-based, human; details: H292, SRB, read-out: IC50, 72 h drug exposure
Experimental: as §1

[11] = system: CHO/C5-PCFT cells; experiment: Growth inhibition, SRB assay, CHO/C5-PCFT (PCFT-transfected); format: cell-based, Chinese hamster
Experimental: as §1

[12] = system: HT29 cells; experiment: Growth inhibition, SRB assay, HT29; format: cell-based; details: Homo sapiens, HT-29, 72 h, read-out: IC50, 72 h drug exposure
Experimental: as §1

[13] = system: CaCo2 LF/LV cells; experiment: Growth inhibition, SRB assay, CaCo2 LF/LV; format: cell-based; details: Homo sapiens, Caco-2, 72 h, read-out: IC50, 72 h drug exposure
Experimental: as §1

[14] = system: CaCo2 cells; experiment: Growth inhibition, SRB assay, CaCo2; format: cell-based; details: Homo sapiens, Caco-2, 72 h, read-out: IC50, 72 h drug exposure
Experimental: as §1

[15] = system: LS174T cells; experiment: Growth inhibition, SRB assay, LS174T; format: cell-based; details: Homo sapiens, 72 h, read-out: IC50, 72 h drug exposure
Experimental: as §1

[16] = system: WiDr LF/LV cells; experiment: Growth inhibition, SRB assay, WiDr LF/LV; format: cell-based, human; details: Homo sapiens, WiDr, 72 h, WiDr LF/LV, SRB, read-out: IC50, 72 h drug exposure
Experimental: as §1

[17] = system: colon cancer cell lines; experiment: Growth inhibition, SRB assay, panel of colon cancer cell lines; format: cell-based, human; details: Homo sapiens, read-out: IC50 range over colon cancer cell lines
Experimental: as §1

[18] = system: WiDr cells; experiment: Growth inhibition, SRB assay, WiDr; format: cell-based; details: Homo sapiens, 72 h, read-out: IC50, 72 h drug exposure
Experimental: as §1

[19] = system: SW1398 cells; experiment: Growth inhibition, SRB assay, SW1398; format: cell-based; details: Homo sapiens, 72 h, read-out: IC50, 72 h drug exposure
Experimental: as §1

[20] = system: SW948 cells; experiment: Growth inhibition, SRB assay, SW948; format: cell-based; details: Homo sapiens, SW948, 72 h, read-out: IC50, 72 h drug exposure
Experimental: as §1

[21] = Cricetulus griseus, antifolate alone

T1 sequence (P04818 2-313 limits assumed): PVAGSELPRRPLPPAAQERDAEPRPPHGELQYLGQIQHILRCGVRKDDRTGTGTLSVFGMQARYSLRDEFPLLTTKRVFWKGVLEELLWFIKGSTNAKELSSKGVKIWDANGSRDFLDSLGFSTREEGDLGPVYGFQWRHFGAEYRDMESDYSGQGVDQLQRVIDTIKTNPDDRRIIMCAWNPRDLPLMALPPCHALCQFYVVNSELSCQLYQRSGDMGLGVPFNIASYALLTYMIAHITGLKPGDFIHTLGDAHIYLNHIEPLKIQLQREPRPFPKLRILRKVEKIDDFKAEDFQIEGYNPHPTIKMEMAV

Which results are given for `Nc1nc2[nH]cc(CCc3ccc(C(=O)N[C@@H](CCC(=O)O)C(=O)O)cc3)c2c(=O)[nH]1` [PMX, pemetrexed]?
Protection by l-LV, increase of the IC50 value ([1]; AA8 cells, 5 µM l-LV): 94 fold; IC50 ([1]; antifolate + 5 µM l-LV): 3.5 µM; IC50 [1, 21]: 0.037 µM; IC50 [2, 21]: 42 µM; IC50 ([2]; antifolate + 5 µM l-LV): > 100 µM; l-LV-mediated increase in the IC50 values, range over cell lines [3]: 144-211 fold; IC50 ([4]; antifolate + 5 µM l-LV): 29.3 µM; IC50 [4, 21]: 0.046 µM; IC50 ([5]; Homo sapiens, 72 h, antifolate alone): 0.143 ± 0.014 µM; IC50 ([5]; antifolate + 5 µM l-LV): 21 µM; IC50 ([6]; WiDr, 4 h, antifolate alone): 0.175 ± 0.075 µM; IC50 ([7]; antifolate + 5 µM l-LV): 52.7 µM; IC50 ([7]; Homo sapiens, NCI-H460, 72 h, antifolate alone): 0.302 ± 0.012 µM; IC50 [8, 21]: 3.1 µM; IC50 ([8]; antifolate + 5 µM l-LV): 59.6 µM; IC50 ([9]; antifolate + 5 µM l-LV): 34.3 µM; IC50 ([9]; Homo sapiens, NCI-H28, 72 h, antifolate alone): 0.28 ± 0.048 µM; IC50 ([10]; antifolate + 5 µM l-LV): 17 µM; IC50 ([10]; Homo sapiens, NCI-H292, 72 h, antifolate alone): 0.103 ± 0.012 µM; IC50 [11, 21]: 10.6 µM; IC50 ([11]; antifolate + 5 µM l-LV): 49.2 µM

`O=c1[nH]cc(F)c(=O)[nH]1` [5-FU, 5-fluorouracil] was tested. Which IC50 ([12]; 5-FU + 5 µM d-LV) did it give?
Its IC50 is 7.5 ± 0.5 µM.

What about the IC50 ([12]; 5-FU + 5 µM l-LV) of the same molecule?
Its IC50 is 3.3 ± 0.2 µM.

And the IC50 ([12]; 5-FU + 10 µM dl-LV)?
Its IC50 is 3.8 ± 0.3 µM.

What about the IC50 ([12]; 5-FU alone) of the same molecule?
Its IC50 is 7.9 ± 2.65 µM.

And the IC50 ([13]; 5-FU + 5 µM d-LV)?
Its IC50 is 1.96 ± 0.62 µM.

What about the IC50 ([13]; 5-FU + 5 µM l-LV) of the same molecule?
Its IC50 is 1.78 ± 0.18 µM.

What about the IC50 ([13]; 5-FU + 10 µM dl-LV) of the same molecule?
Its IC50 is 1.78 ± 0.39 µM.

And the IC50 ([13]; 5-FU alone)?
The IC50 was 2.05 ± 0.28 µM.

And the IC50 ([14]; 5-FU + 5 µM d-LV)?
Its IC50 is 3.04 ± 0.66 µM.

And the IC50 ([14]; 5-FU + 5 µM l-LV)?
The IC50 was 3.04 ± 0.39 µM.

And the IC50 ([14]; 5-FU + 10 µM dl-LV)?
Its IC50 is 3.63 ± 0.38 µM.

What about the IC50 ([14]; 5-FU alone) of the same molecule?
The IC50 was 3.08 ± 0.27 µM.

And the IC50 ([15]; 5-FU + 5 µM d-LV)?
The IC50 was 10.5 ± 0.8 µM.

And the IC50 ([15]; 5-FU + 5 µM l-LV)?
The IC50 was 8.11 ± 0.71 µM.

What about the IC50 ([15]; 5-FU + 10 µM dl-LV) of the same molecule?
The IC50 was 8.95 ± 0.72 µM.

And the IC50 ([15]; 5-FU alone)?
The IC50 was 10.5 ± 0.82 µM.

And the IC50 ([16]; 5-FU + 5 µM d-LV)?
Its IC50 is 2.78 ± 0.34 µM.

And the IC50 ([16]; 5-FU + 5 µM l-LV)?
Its IC50 is 1.77 ± 0.15 µM.

What about the IC50 ([16]; 5-FU + 10 µM dl-LV) of the same molecule?
Its IC50 is 1.75 ± 0.08 µM.

And the IC50 ([16]; 5-FU alone)?
The IC50 was 1.83 ± 0.18 µM.

And the IC50 ([17]; 5-FU + 5 µM d-LV)?
Its IC50 is 2 to 10.5 µM.

And the IC50 ([17]; 5-FU + 5 µM l-LV)?
The IC50 was 1.3 to 8.1 µM.

And the IC50 ([17]; 5-FU + 10 µM dl-LV)?
Its IC50 is 1.4 to 8.9 µM.

And the IC50 ([17]; 5-FU only)?
The IC50 was 1.8 to 10.5 µM.

What about the IC50 ([18]; 5-FU + 5 µM d-LV) of the same molecule?
Its IC50 is 4.21 ± 0.57 µM.

What about the IC50 ([18]; 5-FU + 5 µM l-LV) of the same molecule?
Its IC50 is 1.95 ± 0.2 µM.

What about the IC50 ([18]; 5-FU + 10 µM dl-LV) of the same molecule?
The IC50 was 2.91 ± 1.06 µM.

What about the IC50 ([18]; 5-FU alone) of the same molecule?
Its IC50 is 4.56 ± 0.34 µM.

And the IC50 ([6]; SW1398, 4 h, 5FU alone)?
The IC50 was 4.14 ± 0.24 µM.

And the IC50 ([6]; WiDr, 4 h, 5FU alone)?
The IC50 was 3.76 ± 0.35 µM.

And the IC50 ([6]; WiDr-LF, 4 h, 5FU alone)?
The IC50 was 3.67 ± 0.33 µM.

And the IC50 ([19]; 5-FU + 5 µM d-LV)?
The IC50 was 2.4 ± 0.68 µM.

And the IC50 ([19]; 5-FU + 5 µM l-LV)?
The IC50 was 1.28 ± 0.18 µM.

And the IC50 ([19]; 5-FU + 10 µM dl-LV)?
The IC50 was 1.44 ± 0.37 µM.

And the IC50 ([19]; 5-FU alone)?
The IC50 was 2.99 ± 0.47 µM.

What about the IC50 ([20]; 5-FU + 5 µM d-LV) of the same molecule?
The IC50 was 3.85 ± 0.66 µM.

And the IC50 ([20]; 5-FU + 5 µM l-LV)?
The IC50 was 2.63 ± 0.4 µM.

What about the IC50 ([20]; 5-FU + 10 µM dl-LV) of the same molecule?
The IC50 was 2.78 ± 0.29 µM.

And the IC50 ([20]; 5-FU alone)?
Its IC50 is 3.65 ± 0.41 µM.
